Assays:
[1] = test system: B16F10-Cas9 cells co-cultured with Pmel-1 T cells; assay: Genome-scale CRISPR-Cas9 screen, selection with Pmel-1 T cells; format: cell-based, mouse; conditions: Table 3; B16F10-Cas9 cells pre-treated with IFNγ, co-cultured with Pmel-1 T cells 1:1 for three days; negative = depleted, positive = enriched
[2] = test system: B16F10-Cas9 cells pulsed with SIINFEKL peptide, co-cultured with OT-I T cells; assay: Genome-scale CRISPR-Cas9 screen, selection with OT-I T cells; format: cell-based, mouse; conditions: Table 3; B16F10-Cas9 cells pulsed with SIINFEKL, co-cultured with OT-I T cells 1:1 for one day; negative = depleted, positive = enriched

Row | Sequence | Pmel+ (sgRNA Log(2) fold change, Pmel-1 selection versus control T cells) [1] | OT1 (sgRNA Log(2) fold change, OT-I selection versus control T cells) [2]
1 | CACACCCTTACTGCCCGTCG (chemistry not fully specified) | -1.34 | -2.48
2 | GGATCCTGGCGATTCAACAT (chemistry not fully specified) | 0.74 | -3.11
3 | ACACAACGCTAAGACAGTCG (chemistry not fully specified) | -0.22 | -3.60
4 | TGATAATAGATAAACGACCA (chemistry not fully specified) | 0.05 | -3.36
5 | GTCTCTAGCAAAGTCCACGC (chemistry not fully specified) | 3.25 | -0.40
6 | GCTGCCCCGCAGGATCATCA (chemistry not fully specified) | -2.00 | -2.94
7 | GTCTTGTGCAAAAAGCCCGA (chemistry not fully specified) | -0.15 | -2.54
8 | TGTTTGCAGTTAGCAAAACG (chemistry not fully specified) | 0.00 | -2.49
9 | CCCGGACTGGATCAACACCG (chemistry not fully specified) | -0.09 | -3.76
10 | CCTGGGTACCAACTGACGAA (chemistry not fully specified) | -2.96 | -2.91
11 | CATGAGGTAGAATAGTTCGT (chemistry not fully specified) | 2.15 | -0.65
12 | AAACATATAGTGTACCTCTA (chemistry not fully specified) | 10.21 | 2.36
13 | TCATAGCCAGAGCATACTCT (chemistry not fully specified) | -1.33 | -3.24
14 | TAAGCGTTGTTGACTACATG (chemistry not fully specified) | 0.00 | -3.02
15 | TGTAATGTAGGTCTCCCAGG (chemistry not fully specified) | -1.35 | -3.77
16 | AAGACATATAGTTATCAGCA (chemistry not fully specified) | -1.83 | -2.22
17 | GGTTCCTTGCGGGACTCCGT (chemistry not fully specified) | -2.53 | -3.31

Row | Sequence | Pmel+ (sgRNA Log(2) fold change, Pmel-1 selection versus control T cells) [1] | OT1 (sgRNA Log(2) fold change, OT-I selection versus control T cells) [2]
18 | TTAATGACGAGCTCGTGGAG (chemistry not fully specified) | 8.60 | 2.25
19 | TGATGAGCAGATTCTAACTT (chemistry not fully specified) | 5.03 | 3.81
20 | CAGCAGCAAGTTCACAGGTG (chemistry not fully specified) | -1.37 | -3.04
21 | CGGGTATTACAGACTAACTG (chemistry not fully specified) | 3.20 | 2.71
22 | TTAGTTCTGGCAAAGCGCCG (chemistry not fully specified) | -2.54 | -2.23
23 | TTCAGGGTGAAATACGAGGA (chemistry not fully specified) | 5.32 | 3.43
24 | TTGTCCGCGTTACTTCCCTG (chemistry not fully specified) | 0.07 | -2.50
25 | GTAGACAACAACATTCGCAG (chemistry not fully specified) | 2.97 | 0.33
26 | CCGCTCGAAGAAGCACTCCT (chemistry not fully specified) | 0.95 | -3.04
27 | CCTCCGACATTCCGTAACTG (chemistry not fully specified) | -1.90 | -2.32
28 | TGAGTATACTTGAATTTGAG (chemistry not fully specified) | 3.55 | 5.51
29 | GCTGGGGAACTCAATTATAG (chemistry not fully specified) | 2.03 | -0.78
30 | CTCAGCTGGATACAACCAGG (chemistry not fully specified) | 0.00 | -2.27
31 | GTATAAGCCATTACGACGCA (chemistry not fully specified) | -1.52 | -2.81
32 | TTACACGACCCGAATAGCGA (chemistry not fully specified) | 3.22 | -2.14
33 | TCCGAACCGAATCATCACTG (chemistry not fully specified) | 10.23 | 3.59
34 | GAGATCTGCACATTCCGCAC (chemistry not fully specified) | -0.78 | -2.69

From US11820822B2, “Methods for sensitizing cancer cells to T cell-mediated killing by modulating molecular pathways” (DANA-FARBER CANCER INSTITUTE, INC., priority 2017, dated 2023)
